Measurements reported in patent US8809362B2, “Anticancer agent sensitivity-determining marker” (priority 2009, dated 2014).

How the values were obtained:
WiDr = assay: MTS assay sensitivity (IC50) to SN-38, WiDr (Example 3); assay type: cell-based, human; settings: 72 hours exposure, highest IC50 of eight lines
Method: (§1) Cancer cells of each cell line were exposed to SN-38 (0 nmol/L to 5 μmol/L) for 72 hours. After exposure to SN-38, cell viability was determined by means of an MTS assay (CellTiter96™AQueous One Solution Cell Proliferation Assay, Promega). IC50 (concentration of SN-38 at which 50% of cells in an SN-38-non-treated well are inhibited) was calculated for each cell line and employed as the sensitivity of the cell line to SN-38. Sensitivity determination of each cell line was performed in triplicate and twice.
(§2) The experiment procedure of Example 2 was repeated twice. The data obtained in the experiments (three times in total) were further analyzed. Peaks detected through CE-TOFMS in the tested cell samples were compared with the data of 278 standard samples whose m/z values and migration times were already known, whereby 146 metabolites were identified in any of the tested cell samples. The 146 metabolites were investigated through single regression analysis in terms of the correlation between the intracellular content (in eight human colorectal cancer cell lines) and Log[IC50] of each cell line.
(§3) The sensitivity of each of eight human colorectal cancer cell lines (HCT-116, HT-29, HCT-15, Lovo, LS174T, SW480, SW620, and WiDr) was evaluated by employing IC50 calculated through MTS assay as an index.

[1] = background statement; cited from earlier work
HT-29 cells = assay: MTS assay cell viability under SN-38 exposure, HT-29; assay type: cell-based, human; settings: HT-29, 50 nmol/L SN-38, exposure for 72 hours
Method: (§4) Two human colorectal cancer cell lines (HCT-116 and HT-29) employed were obtained from Kabushiki Kaisha Yakult Honsha.
(§5) Cell culturing was performed by means of a φ100 mm/Tissue Culture Dish (IWAKI) with a medium (Doulbecco's modified Eagle's Medium, 10% fetal bovine serum) at 37° C. under 5% CO2.
(§6) SN-38 powder was obtained from Kabushiki Kaisha Yakult Honsha. SN-38 was dissolved in DMSO, and, before use, the solution was diluted so that the DMSO concentration of each of the culture media employed in experiments was adjusted to 0.1% or less.
(§7) Cells of two colorectal cancer cell lines (HCT-116 and HT-29) were exposed to 50 nmol/L SN-38, and 24, 48, and 72 hours after drug exposure, cell viability was determined by means of an MTS assay (CellTiter96™AQueous One Solution Cell Proliferation Assay, Promega). Sensitivity evaluation of each cell line was performed in triplicate with three different passage numbers of cells, and the mean value and standard deviation were calculated.

LS174T = assay: MTS assay sensitivity (IC50) to SN-38, LS174T (Example 3); assay type: cell-based, human; settings: 72 hours exposure, lowest IC50 of eight lines
Method: as §1, §2, §3

HCT-116 cells = assay: MTS assay cell viability under SN-38 exposure, HCT-116; assay type: cell-based, human; settings: HCT-116, 50 nmol/L SN-38, exposure for 72 hours
Method: as §4, §5, §6, §7

| Structure (SMILES) | IC50 (WiDr) [nM] | anti-tumor activity relative to CPT-11 [1] | cell viability (HT-29 cells) | IC50 (LS174T) [nM] | cell viability (HCT-116 cells) | cytotoxicity [1] |
| --- | --- | --- | --- | --- | --- | --- |
| CCc1c2c(nc3ccc(O)cc13)-c1cc3c(c(=O)n1C2)COC(=O)[C@]3(O)CC [SN-38, 7-ethyl-10-hydroxycamptothecin] | 63.3 ± 10.9 | about 100 times to some thousand times that of CPT-11 | about 85% | 0.71 ± 0.18 | about 35% |  |
| CCc1c2c(nc3ccc(O[C@@H]4O[C@H](C(=O)O)[C@@H](O)[C@H](O)[C@H]4O)cc13)-c1cc3c(c(=O)n1C2)COC(=O)[C@]3(O)CC [SN-38G, SN-38 glucuronate conjugate] |  |  |  |  |  | no cytotoxicity |
